Source: US20220331303A1, “USE OF AN OREXIN 2 RECEPTOR AGONIST FOR THE TREATMENT OF EXCESSIVE SLEEPINESS” (Takeda Pharmaceutical Company Limited, priority 2019, published 2022)
Values joined by “and” are separate entries in the source; they are usually repeats but may differ in a detail not shown here. Equal entries are not always repeated.

Legend:
[1] = test system: sleep-deprived healthy volunteers; test: Safety/tolerability of a single dose in sleep-deprived healthy adults; type: in vivo, human; conditions: Modafinil 300 mg; moderate intensity
Protocol: (§1) During the day before dosing on Day 1, participants were administered the KSS at scheduled timepoints. A practice MWT session was performed on Day 1 treatment period 1 (only once during the entire study) to familiarize subjects with the procedures. Study drug was administered in the clinic in the evening on Day 1 of each treatment period. Subjects underwent the MWT and KSS at specified timepoints after the start of the infusion. Subjects were required to stay awake between the MWT tests. Following completion of the IV infusion on Day 2, subjects underwent an additional MWT test. When the final MWT test and cognitive testing were completed, subjects were allowed to sleep (recovery sleep) for approximately 6 hours. PSG recording was collected during this time. Subjects were discharged from the unit after completion on Day 2 with continuing actigraphy upon discharge (to begin on Day −6 before the next treatment period). The interval between each subsequent treatment period was at least 7 days to ensure that the subject's circadian rhythm had returned to a normal cycle. Subject's vital signs, including BP, were monitored during the dosing and testing period. Blood samples for determination of Compound A plasma concentrations were collected at specified timepoints on Days 1 and 2 of each treatment period. Subjects completed the Columbia-Suicide Severity Rating Scale (C-SSRS) during screening, before study drug administration, and before discharge on Day 2 of each treatment period.
Safety endpoints: adverse events (AEs), physical examinations, vital signs, 12-lead electrocardiograms (ECGs), clinical laboratory evaluations (hematology, blood chemistry, and urinalysis), drug-liking visual analogue scale, and Profile of Mood States.

[2] = test system: sleep-deprived healthy volunteers; test: Maintenance of wakefulness test (MWT) in sleep-deprived healthy volunteers; type: in vivo, human; conditions: for Total Sleep Time LS Mean / Total Sleep Time LS Mean Difference vs Placebo Estimate / Total Wake Time LS Mean / Total Wake Time LS Mean Difference vs Placebo Estimate: M: Modafinil 300 mg; for Duration Total Microsleeps (MWT), LS Mean / Duration Total Microsleeps (MWT), LS Mean Difference vs placebo / Latency to Sleep Onset on MWT, LS Mean / Latency to Sleep Onset on MWT, LS Mean Difference vs placebo / Stage N1 Duration (MWT), LS Mean / Stage N1 Duration (MWT), LS Mean Difference vs placebo / Stage N2 Duration (MWT), LS Mean / Stage N2 Duration (MWT), LS Mean Difference vs placebo / Total Microsleeps (MWT), LS Mean / Total Microsleeps (MWT), LS Mean Difference vs placebo: Modafinil 300 mg (M)
Protocol: The primary objective of this study was to determine the effect of Compound A (methyl (2R,3S)-3-((methylsulfonyl)amino)-2-(((cis-4-phenylcyclohexyl)oxy)methyl)piperidine-1-carboxylate), 44 mg (low dose [LD]) and 112 mg (high dose [HD]), after a single IV dose (compared to placebo) on promoting wakefulness as measured by sleep latency on the MWT (performed at approximately 2, 4, 6, and 8 hours post-dosing starting at approximately 1:00 AM and then at approximate times of 3:00, 5:00, and 7:00 AM) in sleep-deprived healthy volunteers.
This was a phase 1b, single-center, randomized, double-blind, double-dummy, placebo- and active-controlled, 4-period Williams design crossover study to evaluate the PK, PD, and safety of Compound A in sleep-deprived healthy volunteers. Compound A was administered as a 9-hour IV infusion.
Healthy adult male subjects aged 18 to 40 years, inclusive, who satisfied the inclusion and exclusion criteria were enrolled in the trial. On Day 1 of treatment period 1, eligible subjects were equally randomized to 4 treatment sequence groups (sequence 1 to 4) which defined the order of administration for Compound A LD, Compound A HD (both delivered as a 9-hour IV infusion), modafinil 300 mg, and placebo.
as §1
Primary endpoint: Latency for each MWT, defined as time to sleep onset.

[3] = Average Overall, MWT during infusion
[4] = Modafinil 300 mg, after the end of infusion (1 hour post end of infusion)

NC(=O)C[S+]([O-])C(c1ccccc1)c1ccccc1 (stereo not drawn) [Modafinil, modafinil, reference compound]
Drug-related TEAE of liver function test increased, number of subjects [1]: 1 subject | Total Sleep Time LS Mean ([2]; 2 HOURS POST INFUSION START): 0.88 min | Total Sleep Time LS Mean Difference vs Placebo Estimate ([2]; 2 HOURS POST INFUSION START): -1.85 min | Total Wake Time LS Mean ([2]; 2 HOURS POST INFUSION START): 34.87 min | Total Wake Time LS Mean Difference vs Placebo Estimate ([2]; 2 HOURS POST INFUSION START): 17.15 min | Total Sleep Time LS Mean ([2]; 4 HOURS POST INFUSION START): 0.96 min | Total Sleep Time LS Mean Difference vs Placebo Estimate ([2]; 4 HOURS POST INFUSION START): -2.19 min | Total Wake Time LS Mean ([2]; 4 HOURS POST INFUSION START): 36.45 min | Total Wake Time LS Mean Difference vs Placebo Estimate ([2]; 4 HOURS POST INFUSION START): 26.40 min | Total Sleep Time LS Mean ([2]; 6 HOURS POST INFUSION START): 1.25 min | Total Sleep Time LS Mean Difference vs Placebo Estimate ([2]; 6 HOURS POST INFUSION START): -0.98 min | Total Wake Time LS Mean ([2]; 6 HOURS POST INFUSION START): 33.11 min | Total Wake Time LS Mean Difference vs Placebo Estimate ([2]; 6 HOURS POST INFUSION START): 26.69 min | Total Sleep Time LS Mean ([2]; 8 HOURS POST INFUSION START): 2.35 min | Total Sleep Time LS Mean Difference vs Placebo Estimate ([2]; 8 HOURS POST INFUSION START): -0.57 min | Total Wake Time LS Mean ([2]; 8 HOURS POST INFUSION START): 22.32 min | Total Wake Time LS Mean Difference vs Placebo Estimate ([2]; 8 HOURS POST INFUSION START): 18.67 min | Total Sleep Time LS Mean [2, 3]: 1.36 min | Total Sleep Time LS Mean Difference vs Placebo Estimate [2, 3]: -1.40 min | Total Wake Time LS Mean [2, 3]: 31.69 min | Total Wake Time LS Mean Difference vs Placebo Estimate [2, 3]: 22.23 min | Average total wake time (MWT), LS mean difference vs placebo ([2]; Modafinil 300 mg): 22.23 min | Total sleep time (MWT), LS mean difference vs placebo ([2]; Modafinil 300 mg): -1.40 min | Duration Total Microsleeps (MWT), LS Mean ([2]; 2 hours post infusion start): 5.75 s | Duration Total Microsleeps (MWT), LS Mean Difference vs placebo ([2]; 2 hours post infusion start): -3.05 s | Latency to Sleep Onset on MWT, LS Mean ([2]; 2 hours post infusion start): 35.57 min | Latency to Sleep Onset on MWT, LS Mean Difference vs placebo ([2]; 2 hours post infusion start): 19.89 min | Stage N1 Duration (MWT), LS Mean ([2]; 2 hours post infusion start): 0.47 min | Stage N1 Duration (MWT), LS Mean Difference vs placebo ([2]; 2 hours post infusion start): -0.68 min | Stage N2 Duration (MWT), LS Mean ([2]; 2 hours post infusion start): 0.36 min | Stage N2 Duration (MWT), LS Mean Difference vs placebo ([2]; 2 hours post infusion start): -0.49 min | Total Microsleeps (MWT), LS Mean ([2]; 2 hours post infusion start): 1.06 | Total Microsleeps (MWT), LS Mean Difference vs placebo ([2]; 2 hours post infusion start): −0.74 | Duration Total Microsleeps (MWT), LS Mean ([2]; 4 hours post infusion start): 7.91 s | Duration Total Microsleeps (MWT), LS Mean Difference vs placebo ([2]; 4 hours post infusion start): -4.39 s | Latency to Sleep Onset on MWT, LS Mean ([2]; 4 hours post infusion start): 35.60 min | Latency to Sleep Onset on MWT, LS Mean Difference vs placebo ([2]; 4 hours post infusion start): 26.50 min | Stage N1 Duration (MWT), LS Mean ([2]; 4 hours post infusion start): 0.68 min | Stage N1 Duration (MWT), LS Mean Difference vs placebo ([2]; 4 hours post infusion start): -0.97 min | Stage N2 Duration (MWT), LS Mean ([2]; 4 hours post infusion start): 0.20 min | Stage N2 Duration (MWT), LS Mean Difference vs placebo ([2]; 4 hours post infusion start): -0.95 min | Total Microsleeps (MWT), LS Mean ([2]; 4 hours post infusion start): 1.27 | Total Microsleeps (MWT), LS Mean Difference vs placebo ([2]; 4 hours post infusion start): −1.08 | Duration Total Microsleeps (MWT), LS Mean ([2]; 6 hours post infusion start): 9.70 s | Duration Total Microsleeps (MWT), LS Mean Difference vs placebo ([2]; 6 hours post infusion start): 2.30 s | Latency to Sleep Onset on MWT, LS Mean ([2]; 6 hours post infusion start): 31.89 min | Latency to Sleep Onset on MWT, LS Mean Difference vs placebo ([2]; 6 hours post infusion start): 25.74 min | Stage N1 Duration (MWT), LS Mean ([2]; 6 hours post infusion start): 0.84 min | Stage N1 Duration (MWT), LS Mean Difference vs placebo ([2]; 6 hours post infusion start): -0.31 min | Stage N2 Duration (MWT), LS Mean ([2]; 6 hours post infusion start): 0.20 min | Stage N2 Duration (MWT), LS Mean Difference vs placebo ([2]; 6 hours post infusion start): -0.30 min | Total Microsleeps (MWT), LS Mean ([2]; 6 hours post infusion start): 1.85 | Total Microsleeps (MWT), LS Mean Difference vs placebo ([2]; 6 hours post infusion start): 0.60 | Duration Total Microsleeps (MWT), LS Mean ([2]; 8 hours post infusion start): 12.64 s | Duration Total Microsleeps (MWT), LS Mean Difference vs placebo ([2]; 8 hours post infusion start): 4.84 s | Latency to Sleep Onset on MWT, LS Mean ([2]; 8 hours post infusion start): 20.44 min | Latency to Sleep Onset on MWT, LS Mean Difference vs placebo ([2]; 8 hours post infusion start): 16.91 min | Stage N1 Duration (MWT), LS Mean ([2]; 8 hours post infusion start): 1.15 min | Stage N1 Duration (MWT), LS Mean Difference vs placebo ([2]; 8 hours post infusion start): 0.00 min | Stage N2 Duration (MWT), LS Mean ([2]; 8 hours post infusion start): 0.89 min | Stage N2 Duration (MWT), LS Mean Difference vs placebo ([2]; 8 hours post infusion start): -0.21 min | Total Microsleeps (MWT), LS Mean ([2]; 8 hours post infusion start): 2.22 | Total Microsleeps (MWT), LS Mean Difference vs placebo ([2]; 8 hours post infusion start): 0.92 | Duration Total Microsleeps (MWT), LS Mean ([2]; average overall): 9.00 s | Duration Total Microsleeps (MWT), LS Mean Difference vs placebo ([2]; average overall): -0.08 s | Latency to Sleep Onset on MWT, LS Mean ([2]; average overall): 30.87 min and 30.87 (1.888) min | Latency to Sleep Onset on MWT, LS Mean Difference vs placebo ([2]; average overall): 22.26 min and 22.3 min and 22.62 min and 22.26 (2.634) min | Stage N1 Duration (MWT), LS Mean ([2]; average overall): 0.79 min | Stage N1 Duration (MWT), LS Mean Difference vs placebo ([2]; average overall): -0.49 min | Stage N2 Duration (MWT), LS Mean ([2]; average overall): 0.41 min | Stage N2 Duration (MWT), LS Mean Difference vs placebo ([2]; average overall): -0.49 min | Total Microsleeps (MWT), LS Mean ([2]; average overall): 1.60 | Total Microsleeps (MWT), LS Mean Difference vs placebo ([2]; average overall): −0.08 | Latency to Sleep Onset on MWT, LS Mean (SE) [2, 4]: 21.42 (2.168) | Latency to Sleep Onset on MWT, LS Mean Difference vs placebo, Estimate (SE) [2, 4]: 16 minutes and 16.77 (2.692) minutes
